Patent US7939526B2, “Sulfone substituted imidazo ring ethers” (3M Innovative Properties Company, priority 2003, dated 2011)

Compound | melting point
COCc1nc2c(N)nc3c(c2n1CC(C)(C)OCCS(C)(=O)=O)CCCC3 [Example 39, 2-(Methoxymethyl)-1-{2-methyl-2-[2-(methylsulfonyl)ethoxy]propyl}-6,7,8,9-tetrahydro-1H-imidazo[4,5-c]quinolin-4-amine] | 195 to 197 °C
CCOCc1nc2c(N)nc3cccnc3c2n1CC(C)(C)OCCS(C)(=O)=O [Example 40, 2-Ethoxymethyl-1-{2-[2-(methylsulfonyl)ethoxy]-2-methylpropyl}-1H-imidazo[4,5-c][1,5]naphthyridin-4-amine] | 189 to 191 °C
